Measured values from patent publication US9629834B2, “Medicinal composition for inhibiting formation and/or enlargement of cerebral aneurysm or shrinking same” (KYOTO UNIVERSITY, priority 2013, dated 2017).

Legend:
Format in all cases: in vivo, SD rat
[1] = Influences on blood pressure and heart rate of rats (tail-cuff method); settings: 0.03 or 0.1 mg/kg oral once a day, Day 1 to Day 27; measured Day 28, without anesthesia; FIG. 7A and FIG. 7B
Description: Immediately before dissecting rats 28 days after surgery (Day 28) as described in the section (1) of Example 1, blood pressure and heart rate of each of rats were measured noninvasively without anesthesia by a tail-cuff method. The measurement was conducted by using a noninvasive blood pressure measuring device for rats and mice BP-98A (Softron). The measurement was conducted three times per rat, and the mean value was used for calculating the mean value of all rats in each of the groups. No influence of the administration of Compound 1 on any blood pressure (SBP: systolic blood pressure, MBP: mean blood pressure, DBP: diastolic blood pressure) or heart rate was observed.

[2] = test system: lymphocytes in peripheral blood; test: Lymphopenic action in cerebral aneurysm model; settings: 0.03 mg/5 mL or 0.1 mg/5 mL suspension, 5 mL/kg, forced oral, once a day, Day 1 to Day 27; blood collected Day 28; FIG. 2
Description: A rat model of cerebral aneurysm was prepared according to the method disclosed on the literature by Hashimoto et al. (Surgical Neurology 1978, Vol. 10, p. 3-8). Namely, 50 mg/kg of pentobarbital was administrated intraperitoneally to a 7-week-old male SD rat, and the left common carotid artery and the left renal artery were ligated by using 10-0 nylon thread under anesthesia (this is referred to as the surgery for inducing cerebral aneurysm). From the day after surgery (Day 1), the rat was reared with being fed a high-salt diet. During a rearing period, the rat was given free access to water. Forced oral administration of 0.03 mg/5 mL or 0.1 mg/5 mL of the suspension of Compound 1 to the cerebral aneurysm model was conducted once a day at a dose of 5 mL/kg from 1 day after surgery (Day 1) to 27 days after surgery (Day 27). It should be noted that forced oral administration of the 0.5% MC solution (0 mg/5 mL of the suspension of Compound 1) to the cerebral aneurysm model was conducted once a day at a dose of 5 mL/kg. The group of these rats was defined as a vehicle group. […] The number of lymphocytes in the collected blood was counted by using a blood test system (Advia 120, Siemens Healthcare Diagnostics) according to the manual of the system.

cerebral aneurysm model = test: Inhibitory effect on enlargement of cerebral aneurysm in cerebral aneurysm model; settings: 0.1 mg/5 mL suspension, forced oral, once a day from Day 7; measured Day 7, Day 28, Day 49; FIG. 8 and FIG. 9
Description: A rat model of cerebral aneurysm was prepared according to the method disclosed on the literature by Hashimoto et al. (Surgical Neurology 1978, Vol. 10, p. 3-8). Namely, 50 mg/kg of pentobarbital was administrated intraperitoneally to a 7-week-old male SD rat, and the left common carotid artery and the left renal artery were ligated by using 10-0 nylon thread under anesthesia (this is referred to as the surgery for inducing cerebral aneurysm). From the day after surgery (Day 1), the rat was reared with being fed a high-salt diet. During a rearing period, the rat was given free access to water. The cerebral aneurysm model was reared with being fed a high-salt diet for 7 days from the day of the surgery so that the model formed cerebral aneurysm. 7 Days after surgery (Week 1, Day 7), the diet for the cerebral aneurysm model was replaced with a normal diet, and forced oral administration of the suspension of Compound 1 at a concentration of 0.1 mg/5 mL to the cerebral aneurysm model was conducted once a day. […] 7 Days after surgery (Week 1, Day 7), 28 days after surgery (Week 4, Day 28), and 49 days after surgery (Week 7, Day 49), the right olfactory artery/anterior cerebral artery bifurcation containing cerebral aneurysm was extirpated and the size of cerebral aneurysm (the maximum diameter and the mean diameter) was measured by similar procedures to Example 1.

[3] = test system: macrophages (F4/80-positive cells); test: Infiltration of macrophages into cerebral aneurysm formation site (F4/80 immunostaining); settings: Day 1 to Day 27, Day 28, vs vehicle group, FIG. 3B
Description: A rat model of cerebral aneurysm was prepared according to the method disclosed on the literature by Hashimoto et al. (Surgical Neurology 1978, Vol. 10, p. 3-8). Namely, 50 mg/kg of pentobarbital was administrated intraperitoneally to a 7-week-old male SD rat, and the left common carotid artery and the left renal artery were ligated by using 10-0 nylon thread under anesthesia (this is referred to as the surgery for inducing cerebral aneurysm). From the day after surgery (Day 1), the rat was reared with being fed a high-salt diet. During a rearing period, the rat was given free access to water. Forced oral administration of 0.03 mg/5 mL or 0.1 mg/5 mL of the suspension of Compound 1 to the cerebral aneurysm model was conducted once a day at a dose of 5 mL/kg from 1 day after surgery (Day 1) to 27 days after surgery (Day 27). 28 Days after surgery (Day 28), the treatments on the right olfactory artery/anterior cerebral artery bifurcation containing cerebral aneurysm were conducted by using similar procedures to the steps 1) to 5) of Reference Example 2, and a section of the bifurcation was prepared. […] Under the observation with a confocal microscope, the number of macrophages was counted in an area of 100 μm square centered around the cerebrovascular bifurcation where cerebral aneurysm developed. The measurement was conducted on five rats and the mean value was calculated. […]

C[C@H](Oc1ccc(-c2nc(-c3ccc4[nH]cnc4c3)no2)cc1C(F)(F)F)C(F)(F)F.Cl [Compound 1, 5-{5-[3-(trifluoromethyl)-4-{[(2S)-1,1,1-trifluoropropan-2-yl]oxy}phenyl]-1,2,4-oxadiazol-3-yl}-1H-benzimidazole hydrochloride]
influence on blood pressure (SBP, MBP, DBP) [1]: No influence
influence on heart rate [1]: No influence
number of lymphocytes in peripheral blood [2]: decreased the number of lymphocytes in peripheral blood in a concentration-dependent manner
enlargement of cerebral aneurysm (maximum diameter and mean diameter) (cerebral aneurysm model): inhibited the enlargement of cerebral aneurysm
number of macrophages at the cerebral aneurysm formation site ([3]; 0.03 mg/kg oral once a day): decreased as compared to the number of macrophages in the vehicle group
number of macrophages at the cerebral aneurysm formation site ([3]; 0.1 mg/kg oral once a day): decreased as compared to the number of macrophages in the vehicle group
